Results: patent publication US3933918A, “2-Allyloxy-4-chloro-acetophenone” (Kyowa Hakko Kogyo Co., Ltd., priority 1973, dated 1976)
Structures can show the parent of a compound that is named as a salt.

Experiments:
[1] = system: pulmonary stretch receptor; assay: Effect on the pulmonary stretch receptor impulses in guinea pigs; assay type: in vivo, guinea pig; conditions: for Time required to return to the level before treatment with drug / Change of voltage of stretch receptor impulses (as compared with that before treatment with drug): reduced to / Change of voltage of stretch receptor impulses (as compared with that before treatment with drug): guinea pig
Text: b. Effect on the pulmonary stretch receptor impulses
Five guinea pigs weighing 400-600 g are used. The animals are anesthetized by subcutaneous injection of 1.2 g/kg of urethane and disposed in a supine position. The chest is opened under artificial ventilation. The left vagus nerve is sectioned at the cervical region and the peripheral stumps is placed on a bipolar platinum electrode. The impulses from the pulmonary stretch receptors are observed on an oscilloscope and recorded with a long-recording camera.
The animals are given graded doses of the hydrochloride of 2-allyloxy-4-chloro-β-piperidinopropiophenone by intravenous injection.
The action of the compound on a peripheral nerve is determined by the change of the voltage of the stretch receptor impulses.
As a control, the same test is conducted using benzonatate which is known as a peripherally acting antitussive.

[2] = system: coughs induced by mechanical stimulation of the tracheal mucosa; assay: Antitussive effect on coughs induced by mechanical stimulation of the tracheal mucosa in anesthetized cats ("Coughing cat" method); assay type: in vivo; conditions: for ED50: Felis catus, iv, cat, mechanical stimulation, i.v., fiducial limits (P = 0.05), read-out: AtD50 (50% antitussive dose)
Experimental: b. Effect on coughs induced by mechanical stimulation of the tracheal mucosa in anesthetized cats
More than 4 groups of cats, each consisting of 6 animals of either sex weighing 2-3 kg are used. The animals are lightly anesthetized by intraperitoneal injection of 20 mg/kg of pentobarbital sodium. The test is conducted according to "Coughing cat" method [Folia Pharmacol japon. 55 99 (1959)].
Coughs are induced in the same manner as described above except that a bristle stimulator made of whiskers of rabbit is used. The AtD50 is calculated in the same manner as described above.

[3] = system: coughs induced by mechanical stimulation on the mucosa of the tracheal bifurcation; assay: Comparison of equi-active antitussive doses for various routes of administration in anesthetized dogs; assay type: in vivo, dog; conditions: for Site of antitussive action: central nerve: conclusion in words; for Dose giving nearly the same antitussive effect: dog
Experimental: a. Comparison of equi-active doses for various routes of administration
Five dogs weighing 8-10 kg are used. Polyethylene tubes are previously installed in the animals in the femoral vein, the vertebral artery and the cerebello-medullary cistern. The animals are lightly anesthetized by intraperitoneal injection of 20 mg/kg of pentobarbital sodium. The hydrochloride of 2-allyloxy-4-chloro-β-piperidinopropiophenone is given through the polyethylene tubes. Coughs are induced by mechanical stimulation on the mucosa of the tracheal bifurcation. The doses necessary to obtain the same degree of antitussive effect as that obtained by the administration through the femoral vein are determined.

[4] = system: coughs induced by electrical stimulation of central stump of the superior laryngeal nerve; assay: Antitussive effect on coughs induced by electrical stimulation of central stump of the superior laryngeal nerve in anesthetized cats; assay type: in vivo; conditions: Felis catus, iv, cat, i.v., fiducial limits (P = 0.05), read-out: AtD50 (50% antitussive dose)
Experimental: More than 4 groups of cats, each consisting of 6 animals of either sex weighing 2-3 kg are used. The animals are lightly anesthetized by intraperitoneal injection of 20 mg/kg of pentobarbital sodium. The test is conducted according to the method of Domenjoz (Arch. Exp. Path. u. Pharmakol, 215, 19 (1952)].
The changes of inner pressure of the trachea brought about by coughs are recorded. The animals are given graded doses of the test compound or the standard compound by intravenous injection.
The antitussive effect of the compounds is determined by the changes in both the amplitude and frequency of the cough curves and the duration of the changes. When the amplitude and/or the frequency of the coughs induced by a stimulus of moderate intensity are decreased by more than 20% as compared with those before administration of the drug and when the decrease lasts for more than 20 minutes, the effect is determined to be significant. On the basis of the criteria of evaluation, the AtD50 is calculated according to the method of Lichfield and Wilcoxon.

[5] = system: coughs induced by mechanical stimulation of the tracheal mucosa; assay: Antitussive effect on coughs induced by mechanical stimulation of the tracheal mucosa in dogs ("Coughing dog" method); assay type: in vivo; conditions: for ED50: Canis lupus familiaris, iv, dog, mechanical stimulation, i.v., fiducial limits (P = 0.05), read-out: AtD50 (50% antitussive dose)
Experimental: a. Effect on coughs induced by mechanical stimulation of the tracheal mucosa in dogs
More than 4 groups of dogs, each consisting of 5 animals of either sex weighing 6-10 kg are used. The test is conducted according to "Coughing dog" method [Jap. J. Pharmacol. 2, 7-13 (1952); Pharm. Bull. (Japan) 2 298 (1954); and Jap. J. Pharmacol. 4 130 (1955)]. Coughs are induced by mechanical stimulation with a bristle stimulator made of pig bristles on the tracheal bifurcation through a chronically-built tracheal fistula.
Stimulation is applied by constantly and intensely moving the stimulator up and down 10 times for 20 seconds and the stimulation is repeated every 5 minutes. The changes of the inner pressure of the trachea brought about by coughs are recorded on a smoked paper. The animals are given graded doses of the test compound or the standard compound by intravenous injection.
The antitussive effect of the compounds is determined by the changes in both the amplitude and frequency of the cough curves on the smoked paper and the duration of such changes. When the amplitude and/or the frequency are decreased by more than 20% as compared with those before administration of the drug and when the decrease lasts for more than 20 minutes, the effect is determined to be significant. On the basis of the criteria of evaluation, the 50% antitussive dose (hereinafter referred to as AtD50) is calculated according to the method of Litchfield and Wilcoxon.

[6] = Acute toxicity in rats, determined as LD50; conditions: in vivo, po; rat, P.O., observed one week
Experimental: (§1) Acute Toxicity in Mice and in Rats -- Determined as LD50
c. More than 5 groups of male Wistar strain rats, each consisting of 15 animals weighing 110-150 g are used. The animals are given graded doses of the test compound and the standard compound orally and are observed for one week.
(§2) The LD50 is calculated according to the method of Litchfield and Wilcoxon [J. Pharmacol. & Exper. Therap. 96, 99 (1949)].

[7] = Acute toxicity in mice, determined as LD50; conditions: in vivo, mouse; for LD50 at 168 h: po, P.O., observed one week; for LD50 at 72 h: sc, S.C., observed 72 hours
Experimental: as §1
a. More than 5 groups of male ddy-strain mice, each consisting of 10 animals weighing 18-20 g are used. The animals are given graded doses of the test compound or the standard compound by subcutaneous injection and are observed for 72 hours.
b. More than 6 groups of male dd-strain mice, each consisting of 20 animals weighing 18-20 g are used. The animals are given graded doses of the test compound or the standard compound orally and are observed for one week.
as §2

C=CCOc1cc(Cl)ccc1C(=O)CCN1CCCCC1 [2-Allyloxy-4-Chloro-β-Piperidinopropiophenone Hydrochloride]
Time required to return to the level before treatment with drug ([1]; i.v., 5.0 mg/kg): 10 to 20 min
Change of voltage of stretch receptor impulses (as compared with that before treatment with drug): reduced to ([1]; i.v., 10.0 mg/kg): 1/2
Time required to return to the level before treatment with drug ([1]; i.v., 10.0 mg/kg): ~30 min
Change of voltage of stretch receptor impulses (as compared with that before treatment with drug) ([1]; i.v., 1.0-2.0 mg/kg): none
Effect on the impulses of the pulmonary stretch receptor ([1]; statement in words): repress the impulses of the pulmonary stretch receptor
ED50 [2]: 4.8 mg/kg
Antitussive effect compared with codeine phosphate ([2]; cats, statement in words): antitussive effect equal to codeine phosphate
Site of antitussive action: central nerve ([3]; Hydrochloride): exerts its action on the central nerve
Dose giving nearly the same antitussive effect ([3]; cerebello-medullary cistern): 0.06 to 0.1 mg/kg
Dose giving nearly the same antitussive effect ([3]; femoral vein): 4.30 mg/kg
Dose giving nearly the same antitussive effect ([3]; vertebral artery): 0.4 to 0.8 mg/kg
Ratio of effective doses for the three routes compared with codeine ([3]; statement in words): almost the same as that obtained by using codeine
ED50 [4]: 4.2 mg/kg
ED50 [5]: 3.3 mg/kg
Antitussive effect compared with codeine phosphate ([5]; dogs, statement in words): antitussive effect equal to codeine phosphate
LD50 at 168 h [6]: 1020 mg/kg
LD50 at 168 h [7]: 240 mg/kg
LD50 at 72 h [7]: 105 mg/kg

C=CCOc1cc(Cl)ccc1C(=O)CCN1CCCCC1 [2-allyloxy-4-chloro-β-piperidinopropiophenone]
Site of antitussive action: peripheral nerves ([1]; conclusion in words): exerts a considerable action on peripheral nerves
Site of antitussive action: central nerve [3]: acts centrally

CCCCNc1ccc(C(=O)OCCOCCOCCOCCOCCOCCOCCOCCOCCOC)cc1 [Benzonatate]
Change of voltage of stretch receptor impulses (as compared with that before treatment with drug): reduced to ([1]; 1.0 mg/kg): 3/4
Time required to return to the level before treatment with drug ([1]; 1.0 mg/kg): 10 min
Change of voltage of stretch receptor impulses (as compared with that before treatment with drug): reduced to ([1]; 2.0 mg/kg): 1/2
Time required to return to the level before treatment with drug ([1]; 2.0 mg/kg): 30 min
Change of voltage of stretch receptor impulses (as compared with that before treatment with drug): reduced to ([1]; 4.0 mg/kg): zero
Time required to return to the level before treatment with drug ([1]; 4.0 mg/kg): 30 to 40 min
Change of voltage of stretch receptor impulses (as compared with that before treatment with drug) ([1]; 0.1-0.5 mg/kg): none

COc1ccc2c3c1O[C@H]1[C@@H](O)C=C[C@H]4[C@@H](C2)N(C)CC[C@@]341 [Codeine phosphate, reference compound]
ED50 [2]: 2.3 mg/kg
ED50 [4]: 2.1 mg/kg
ED50 [5]: 2.5 mg/kg
LD50 at 168 h [6]: 807 mg/kg
LD50 at 168 h [7]: 729 mg/kg
LD50 at 72 h [7]: 191 mg/kg
